Test [1] has as its system Bacillus subtilis IFO 3134. Briefly: Antibacterial activity (MIC) against Bacillus subtilis IFO 3134. Format: cell-based. To be noted: IFO3134, 37° C., 18 to 20 hours. As to the method:
The antibacterial activity against Gram-positive bacteria of the compound of the present invention was measured according to a standard method of Nippon Kagaku Ryoho Gakkai [Nippon Kagaku Ryoho Gakkaishi (Journal of the Chemical therapy of Japan), 29, 76(1981)].
As for gram-positive bacteria, after cultivation in Meuller Hinton broth medium (made by Difco Co., Ltd.), there was prepared a bacterial suspension for inoculation containing about 10^6 of the bacteria per 1 ml of the Meuller Hinton broth medium. On the other hand, the test compound was added to Mueller Hinton agar medium (made by Difco Co., Ltd.) so as to give agar plate medium containing test samples which are twofold serial diluted. Then, the above-mentioned bacterial suspension for inoculation was streaked to each agar medium for about 2 cm with a looped nichrome wire (inner diameter: about 1 mm).
After that the each agar plate medium was cultured at 37° C. for 18 to 20 hours, the growth of the test bacteria was determined.

In test [2] the target is T1, reverse transcriptase derived from Moloney-Murine Leukemia Virus (M-MLV) (Moloney murine leukemia virus, UniProt P03355).
T1 construct: reverse transcriptase derived from Moloney-Murine Leukemia Virus; purchased Pharmacia K. K
Briefly: Inhibiting activity against reverse transcriptase derived from M-MLV. To be noted: read-out: Inhibition rate (reverse transcriptase derived from M-MLV); for inhibition at 1 µM: 1 μM in the reaction mixture; for inhibition at 10 µM: 10 μM in the reaction mixture. The test is classed as biochemical. As to the method:
There was found the following point by using reverse transcriptase derived from Moloney-Murine Leukemia Virus (hereinafter referred to as "M-MLV").
The compound of the present invention was dissolved in DMSO to give a 100 mM solution thereof. Then, the solution was diluted with distilled water containing DMSO to give a solution of the test compound having a defined concentration. A mixed ratio of DMSO and distilled water was adjusted so that the concentration of DMSO at this time is 10% by volume and a final concentration of DMSO at the beginning of a reaction is 1% by volume.
The thus prepared solution of the test compound was mixed with a solution containing 50 mM of Tris--HCl buffer (pH 8.3), 8 mM of MgCl2, 30 mM of NaCl, 50 mM of dithiothreitol (made by Wako Pure Chemical Industries Ltd.), 0.2 mM of thymidine-5'-triphosphate (made by Pharmacia K. K.) and 6 U/ml of reverse transciptase derived from M-MLV (made by Pharmacia K. K.), and preincubated at 37° C. for 30 minutes. After there was added thereto 10 μg/ml of polyadenylic acid (made by PL Biochemicals Co., Ltd.), 0.01 U/ml of oligodeoxy thymidylic acid (made by Pharmacia K. K.) and 10 μCi/ml of [methyl-^3 H] thymidine-5'-triphosphate (made by Amersham Japan Co., Ltd., 47 Ci/mmol) to give a reaction mixture, the mixture was further incubated at 37° C. for 30 minutes, followed by cooling with ice to stop the reaction.
The radioactivity incorporated into deoxyribonucleic acids was measured according to the method of Linteril et al (Science 170, 447 to 449 (1967)). A defined volume of the reaction mixture was soaked into DE-81 filter paper (made by Whatman Ltd.), the filter paper was washed with 5% by weight of Na2 HPO4 solution for three times, and with distilled water and ethanol successively, and then dried. Radioactivity contained in the filter paper was measured by liquid scintillation counter to give the each radioactivity of the test solution groups.
On the other hand, the same procedure as above was carried out using DMSO-distilled water without the test compound instead of using the test solution, to give the value of radioactivity of a control group.
Reverse transcriptase derived from M-MLV inhibition rate (%) was calculated by the following equation. [formula]

In test [3] the test system is antigen-induced airway constriction. The test is described as follows: Inhibitory activity against antigen-induced airway constriction in actively sensitized guinea pigs. To be noted: Cavia porcellus, read-out: Inhibition rate (airway constriction). Format: in vivo. As to the method:
(3) Inhibitory activity against antigen-induced airway constriction in actively sensitized guinea pigs
That is, the sensitized guinea pigs (5 guinea pigs/group) were provided with artificial respiration by inserting a tracheal cannula under urethane anesthesia (1.5 g/kg body weight, intraperitoneal administration), and then, gallamine at 1 mg/kg body weight was injected intravenously to stop spontaneous respiration of the guinea pigs. Inhalation of 0.5% aqueous solution of ovalbumin was conducted using a nebulizer for 1 minute to increase antigen-induced airway constriction, at the same time, airway pressure was recorded through a transducer. Test compound was administered into jugular vein (i.v.) of the guinea pig 3 minutes before the antigen inhalation or administered orally (p.o.) 2 hours before the antigen inhalation. As a positive control compound, theophylline which was a drug for anti-asthma was used. The effect of the compound was estimated by calculating the maximum value of airway constriction (%) in comparison with the control group, according to the following equation. [formula]

Test [4] concerns passive cutaneous anaphylaxis (PCA) reaction. Briefly: Inhibitory activity against homologous PCA reaction in rats. Format: in vivo, male Wistar rats. Conditions: Rattus norvegicus, 100 mg/kg, oral, 1 hour before antigen, read-out: Inhibition rate (PCA reaction). As to the method:
(1) Inhibitory activity against homologous PCA reaction in rats
Antiserum was prepared according to I. Mota [Immunology, 7, 681(1964)]and the PCA reaction was conducted according to Maruyama et al. [Folia Pharmacologica Japonica, 74, 179(1978}].
An ovalbumin solution dissolved in physiological saline (2 mg/ml) was injected intramuscularly into both thighs of male Wistar rats weighing 200 to 260 g in a volume of 0.5 ml/100 g body weight, and pertussis vaccine (Bordetella pertussis, 2×10^10 /ml/ Chiba Serum Institute) was intraperitoneally administered at 1 ml/rat. Twelve days after sensitization, blood was taken from posterior aorta under ether anesthesia and serum was separated and stored at -80° C.
In each group, 4 male Wistar rats weighing 180 to 210 g were used. Back of the rats was shaved and reach 0.05 ml of antiserum diluted 32 times with physiological saline was injected intradermally at four sites on the back. After 48 hours, 1 ml of a mixture of ovalbumin (2 mg/ml) as an antigen and Evans blue (10 mg/ml) in the volume ratio of 1 : 1, which was dissolved in physiological saline was injected intravenously into the tail. Thirty minutes later, the rats were bled to death under ether anesthesia and the back skin of the rats was removed. The blue-dyed area formed by pigment exudation was measured and an inhibition rate (%) was calculated as compared with control according to the following equation. [formula]
A test compound suspended in a 2.5 % aqueous solution of gum arabic containing 0.2 % Tween 80 was administered orally in a volume of 0.5 m:/100 g body weight 1 hour before the injection of antigen. To the control group, only the vehicle was administered. Tranilast which was a positive control compound was administered orally 30 minutes before the injection of antigen.

Setting [5] is: iv, 3 minutes before antigen inhalation.

Values after ≈ are worked out from the molar mass of the structure shown.

One may read the MIC as the least concentration at which growth counts as inhibited. The inhibition is the percentage by which the read-out fell short of the control. `O=C1NC(=S)SC1=Cc1cc(Cc2ccccc2)c(O)c(Cc2ccccc2)c1` [Compound 2]: the MIC in test [1] is no more than 6 µg/mL. For the same compound, the inhibition at 1 µM in test [2] was determined as 95%.

For `O=C1NC(=S)SC1=Cc1cc(O)c(O)c(CSc2ccccc2)c1` [Compound 7], the inhibition in vivo at 1 mg/kg in test [3] (setting [5]) is 25%. Further, the inhibition at 1 µM in test [2] was 98%. In the case of `O=C1NC(=S)SC1=Cc1cc(CSc2ccccc2)c(O)c(OCc2ccccc2)c1` [Compound 8], the inhibition in vivo at 1 mg/kg in test [3] (setting [5]) worked out at 43%. Also, the inhibition at 1 µM in test [2] was found to be 98%.

Take `CCCCOc1cc(C=C2SC(=S)NC2=O)cc(CSc2ccccc2)c1O` [Compound 9]: the inhibition in vivo at 1 mg/kg in test [3] (setting [5]) is 20%. Further, in test [2], the inhibition at 1 µM stood at 73%. On to `CCCCOc1cc(C=C2SC(=S)NC2=O)cc(Cc2ccccc2)c1O` [Compound 10], for which the inhibition at 10 µM in test [2] is 61%. For the compound `O=C1Nc2ccccc2C1=Cc1cc(O)c(O)c(CSc2ccccc2)c1` [Compound 11], the inhibition in vivo at 1 mg/kg in test [3] (setting [5]) amounted to 52%. Further, the inhibition in vivo at 30 mg/kg in test [3] (po, 30 mg/kg, 2 hours before antigen inhalation) worked out at 26%. In test [1], this compound came in with an MIC of no more than 6 µg/mL. The inhibition at 1 µM in test [2] was 94%. `O=C1NN(c2ccccc2)C(=O)C1=Cc1cc(Cc2ccccc2)c(O)c(Cc2ccccc2)c1` [Compound 20] returned an MIC in test [1] of 50 µg/mL (≈ 109 µM). For the same compound, in test [2], the inhibition at 10 µM came out at 97%. With `O=C1NN(c2ccccc2)C(=O)C1=Cc1cc(O)c(O)c(Cc2ccccc2)c1` [Compound 24], the inhibition at 1 µM in test [2] was determined as 91%. In the case of `O=C1N=C(NCc2ccccc2)SC1=Cc1cc(Cc2ccccc2)c(O)c(Cc2ccccc2)c1` [Compound 26], in test [3] (setting [5]), the inhibition in vivo at 1 mg/kg was found to be 68%. The inhibition at 10 µM in test [2] is 76%. `O=C1N=C(NCc2cccs2)SC1=Cc1cc(CSc2ccccc2)c(O)c(OCc2ccccc2)c1` [Compound 31]: the inhibition at 10 µM in test [2] turned out to be 61%.

As to `CC(C)c1cc(C=C2SC(NCc3ccccc3)=NC2=O)cc(C(C)C)c1O` [Compound 33], the inhibition in vivo at 2 mg/kg in test [3] (iv, 2 mg/kg, 3 minutes before antigen inhalation) was 26%. Also, in test [4], the inhibition in vivo at 100 mg/kg was found to be 50%. Turning to `CC(C)c1cc(C=C2SC(NCc3ccc(F)cc3)=NC2=O)cc(C(C)C)c1O` [Compound 35], the inhibition in vivo at 100 mg/kg in test [4] came out at 43%. On to `CC(C)c1cc(C=C2SC(NCc3ccc(Cl)c(Cl)c3)=NC2=O)cc(C(C)C)c1O` [Compound 37], for which, in test [3] (setting [5]), the inhibition in vivo at 1 mg/kg amounted to 21%. In addition, in test [4], the inhibition in vivo at 100 mg/kg came to 21%. `Cc1ccc(CNC2=NC(=O)C(=Cc3cc(C(C)C)c(O)c(C(C)C)c3)S2)cc1` [Compound 39]: the inhibition in vivo at 1 mg/kg in test [3] (setting [5]) came to 59%. In addition, the inhibition in vivo at 100 mg/kg in test [4] was 65%. `CC(C)c1cc(C=C2SC(NCc3ccc(S(N)(=O)=O)cc3)=NC2=O)cc(C(C)C)c1O` [Compound 41] gave an MIC in test [1] of 25 µg/mL (≈ 52.8 µM). Also, the inhibition in vivo at 100 mg/kg in test [4] was 25%. Turning to `CC(C)c1cc(C=C2SC(NCc3ccc(N)cc3)=NC2=O)cc(C(C)C)c1O` [Compound 42], the inhibition in vivo at 5 mg/kg in test [3] (iv, 5 mg/kg, 3 minutes before antigen inhalation) worked out at 33%. Further, the inhibition at 10 µM in test [2] stood at 50%.

The values are drawn from US5089516A, “1-phenyl-3,5-pyrazolidinedione hydroxystyrene compounds which have tyrosine kinase inhibiting activity” (Kanegafuchi Kagaku Kogyo Kabushiki Kaisha, priority 1987, dated 1992).
